# Laboratory results taken from US20110173718A1, “HERBICIDE TOLERANT PLANTS” (SYNGENTA CROP PROTECTION, INC., priority 2008, published 2011).
# How the values were obtained:
# Arabidopsis HST = biological target: T1, Arabidopsis HST (Arabidopsis thaliana, UniProt Q1ACB3); assay: HST total extraction (non TLC) assay, recombinant Arabidopsis HST from insect cells; assay type: biochemical
# T1 construct: GST (factor Xa cleavage site) (N); made in house; host or cells: Sf9 insect cells (baculovirus, pAcG3X), membrane fraction
# T1 sequence (Q1ACB3 70-386): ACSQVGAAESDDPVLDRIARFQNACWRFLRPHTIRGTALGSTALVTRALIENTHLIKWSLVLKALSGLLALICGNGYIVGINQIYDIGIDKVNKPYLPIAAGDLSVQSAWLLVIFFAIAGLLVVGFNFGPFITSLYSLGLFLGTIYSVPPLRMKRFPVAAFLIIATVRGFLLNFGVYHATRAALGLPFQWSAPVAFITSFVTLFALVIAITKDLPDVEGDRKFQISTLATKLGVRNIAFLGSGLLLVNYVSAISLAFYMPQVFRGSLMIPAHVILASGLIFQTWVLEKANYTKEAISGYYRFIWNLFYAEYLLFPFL
# weeds [1] = assay: Glasshouse weed control, HST inhibitors alone and with A22, post-emergence; assay type: in vivo; settings: 336 h, 14 DAT, single replicate, read-out: % control score, Obs; for pest or weed control at 15.625 g/ha: 15.625 g/ha alone; for pest or weed control at 62.5 g/ha: 62.5 g/ha alone; for pest or weed control at 250 g/ha: 250 g/ha alone
# Experimental: (§1) In a further test, the results of which are depicted in tables 18 and 19, weed seeds are planted out in trays containing 50% peat/50% John Innes no. 3 soil and grown in the glass house at 24-27 C day; 18-21 C night and approximately a 15 h photoperiod. Humidity is ˜65% and light levels at bench level are up to 2 mmol/m^2. Again all spray chemicals are dissolved in 0.2% X77 surfactant and sprayed from a boom on a track sprayer moving at 2 mph with the nozzle set about 2 inches above the plant tops. The spray volume is […]. Sprays are carried out both pre-emergence and post-emergence over small plants at about 7-12 d post-emergence. Plants are assessed at 14 DAT with herbicidal damage scored on a scale from 0 to 100%. The HPPD inhibiting herbicide is compound A22 (4-hydroxy-3-[[2-(2-methoxyethoxy)methyl]-6-(trifluoromethyl)-3-pyridinylicarbonyl]-bicyclo[3.2.1]oct-3-en-2-one) which is sprayed at 2 g/ha both alone and in mixture with various HST herbicides. Results and spray rates are depicted in Tables 18 and 19. Again the Colby formula has been used to calculate synergy scores observed following treatment with the mixture based on the results obtained with the single components alone. Positive synergy is observed between the HPPD herbicide and a wide variety of HST inhibitor herbicides applied both pre and postemergence across a variety of weeds.
# weeds [2] = assay: Glasshouse weed control, HST inhibitors alone and with A22, pre-emergence; assay type: in vivo; settings: 336 h, 14 DAT; for pest or weed control at 15.625 g/ha: HST inhibitor rate 15.625 g/ha; for pest or weed control at 62.5 g/ha: HST inhibitor rate 62.5 g/ha; for pest or weed control at 250 g/ha: HST inhibitor rate 250 g/ha
# Experimental: as §1
# [3] = BRAPL, read-out: BRAPL Obs, % control score
# [4] = PANMI, read-out: PANMI Obs, % control score
# [5] = SIDSP, read-out: SIDSP Obs, % control score
# [6] = Digitaria sanguinalis, DIGSA, read-out: DIGSA Obs, % control score
# [7] = Echinochloa crus-galli, ECHCG, read-out: ECHCG Obs, % control score
# [8] = Setaria faberi, SETFA, read-out: SETFA Obs, % control score
Compound,Estimated IC50 (ppm) (Arabidopsis HST),pest or weed control at 15.625 g/ha (weeds [1]; BRAPL) [%],pest or weed control at 62.5 g/ha (weeds [1]; BRAPL) [%],pest or weed control at 250 g/ha (weeds [1]; BRAPL) [%],pest or weed control at 15.625 g/ha (weeds [1]; PANMI) [%],pest or weed control at 62.5 g/ha (weeds [1]; PANMI) [%],pest or weed control at 250 g/ha (weeds [1]; PANMI) [%],pest or weed control at 15.625 g/ha (weeds [1]; SIDSP) [%],pest or weed control at 62.5 g/ha (weeds [1]; SIDSP) [%],pest or weed control at 250 g/ha (weeds [1]; SIDSP) [%],"pest or weed control at 15.625 g/ha (weeds [1]; Digitaria sanguinalis, DIGSA) [%]","pest or weed control at 62.5 g/ha (weeds [1]; Digitaria sanguinalis, DIGSA) [%]","pest or weed control at 250 g/ha (weeds [1]; Digitaria sanguinalis, DIGSA) [%]","pest or weed control at 15.625 g/ha (weeds [1]; Echinochloa crus-galli, ECHCG) [%]","pest or weed control at 62.5 g/ha (weeds [1]; Echinochloa crus-galli, ECHCG) [%]","pest or weed control at 250 g/ha (weeds [1]; Echinochloa crus-galli, ECHCG) [%]","pest or weed control at 15.625 g/ha (weeds [1]; Setaria faberi, SETFA) [%]","pest or weed control at 62.5 g/ha (weeds [1]; Setaria faberi, SETFA) [%]","pest or weed control at 250 g/ha (weeds [1]; Setaria faberi, SETFA) [%]",pest or weed control at 15.625 g/ha (weeds [2]; [3]) [%],further results
Cn1c(=O)c(-c2c(Cl)cccc2C(F)(F)F)c(O)c2nccnc21 [Compound 2.16],78,10,30,70,5,40,70,5,40,50,0,2,40,2,15,50,1,30,65,0,pest or weed control at 62.5 g/ha (weeds [2]; [3]): 5%; pest or weed control at 250 g/ha (weeds [2]; [3]): 50%; pest or weed control at 15.625 g/ha (weeds [2]; [4]): 0%; pest or weed control at 62.5 g/ha (weeds [2]; [4]): 0%; pest or weed control at 250 g/ha (weeds [2]; [4]): 40%; pest or weed control at 15.625 g/ha (weeds [2]; [5]): 0%; pest or weed control at 62.5 g/ha (weeds [2]; [5]): 0%; pest or weed control at 250 g/ha (weeds [2]; [5]): 0%; pest or weed control at 15.625 g/ha (weeds [2]; [6]): 0%; pest or weed control at 62.5 g/ha (weeds [2]; [6]): 0%; pest or weed control at 250 g/ha (weeds [2]; [6]): 0%; pest or weed control at 15.625 g/ha (weeds [2]; [7]): 0%; pest or weed control at 62.5 g/ha (weeds [2]; [7]): 15%; pest or weed control at 250 g/ha (weeds [2]; [7]): 60%; pest or weed control at 15.625 g/ha (weeds [2]; [8]): 0%; pest or weed control at 62.5 g/ha (weeds [2]; [8]): 10%; pest or weed control at 250 g/ha (weeds [2]; [8]): 45%
O=c1c(-c2c(F)ccc(F)c2Cl)c(O)c2nccnc2n1CC(F)(F)F [Compound 2.17],38,1,15,50,0,10,55,5,15,50,0,5,50,0,5,40,0,10,40,0,pest or weed control at 62.5 g/ha (weeds [2]; [3]): 0%; pest or weed control at 250 g/ha (weeds [2]; [3]): 2%; pest or weed control at 15.625 g/ha (weeds [2]; [4]): 0%; pest or weed control at 62.5 g/ha (weeds [2]; [4]): 0%; pest or weed control at 250 g/ha (weeds [2]; [4]): 0%; pest or weed control at 15.625 g/ha (weeds [2]; [5]): 0%; pest or weed control at 62.5 g/ha (weeds [2]; [5]): 0%; pest or weed control at 250 g/ha (weeds [2]; [5]): 0%; pest or weed control at 15.625 g/ha (weeds [2]; [6]): 0%; pest or weed control at 62.5 g/ha (weeds [2]; [6]): 0%; pest or weed control at 250 g/ha (weeds [2]; [6]): 0%; pest or weed control at 15.625 g/ha (weeds [2]; [7]): 0%; pest or weed control at 62.5 g/ha (weeds [2]; [7]): 0%; pest or weed control at 250 g/ha (weeds [2]; [7]): 10%; pest or weed control at 15.625 g/ha (weeds [2]; [8]): 0%; pest or weed control at 62.5 g/ha (weeds [2]; [8]): 0%; pest or weed control at 250 g/ha (weeds [2]; [8]): 10%
